As usually defined, the Ki is a dissociation constant, usually derived from enzyme kinetics or from competition with a known ligand. Usually tissue uptake stands for the share of the injected amount in each gram of the tissue.

The text below walks through data of patent US12246076B2, “Radiolabeled compounds for in vivo imaging of gastrin-releasing peptide receptor (GRPR) and treatment of GRPR-related disorders” (PROVINCIAL HEALTH SERVICES AUTHORITY, priority 2022, dated 2025).

Series [1] concerns the target T1, GRPR (Homo sapiens, UniProt P30550).
T1 construct: endogenous in cells; host or cells: PC-3 prostate cancer cells
The series is described as follows: In vitro competition binding assay, displacement of [^125I-Tyr^4]bombesin on GRPR-expressing PC-3 cells. To be noted: n = 2-3, read-out: Binding affinities Ki Mean. As for the experimental part:
PC-3 cells were seeded at 2×10^5 cells/well in 24-well poly-D-lysine plates 24-48 hours prior to the experiment. The growth medium was replaced by 400 μL of reaction medium (RPMI 1640 containing 2 mg/mL BSA, 4.8 mg/mL HEPES, 1 U/mL penicillin G and 1 μg/mL streptomycin). Cells were incubated for 30-60 min at 37° C. […] The cells were incubated with moderate agitation for 1 h at 27° C., washed twice with ice-cold PBS, harvested by trypsinization, and measured for radioactivity on the gamma counter. Data were analyzed using nonlinear regression (one binding site model for competition assay) with GraphPad Prism 8.
In vitro competition binding assays were performed according to the procedure outlined in Example 1.

A short description of series [2]: Ex vivo biodistribution in PC-3 tumor-bearing mice. To be noted: male, mouse, iv, total radioactivity, 1 h post-injection, n = 4; for tissue uptake at 1 h: mice bearing PC-3 tumor xenografts; for tissue to tissue ratio at 1 h: uptake ratio.
Method: All imaging and biodistribution studies were performed using male NOD.Cg-Rag1^tm1MoM II2rg^tm1WI/SzJ (NRG) mice and conducted according to the guidelines established by the Canadian Council on Animal Care and approved by Animal Ethics Committee of the University of British Columbia. For tumor inoculations, mice were anesthetized by inhalation with 2% isoflurane in oxygen and implanted subcutaneously with 5×10^6 PC-3 cells below the left shoulder. Imaging and biodistribution studies were performed only after tumors grew to 5-8 mm in diameter.
For PET/CT imaging studies, ˜3-4 MBq of the ^68Ga-labeled tracer was injected through the tail vein. Mice were allowed to recover and roam freely in the cages after injecting the tracer. At 45 min post-injection (p.i.), mice were sedated again and positioned on the scanner. First, a 10 min CT scan was conducted for localization and attenuation correction for reconstruction of PET images, before a 10 min PET image was acquired. Heating pads were used during the entire procedure to keep the mice warm. For ex vivo biodistribution studies, mice were injected with ˜1.5-3 MBq of the ^68Ga-labeled tracer. At 1 h p.i., mice were euthanized, blood was drawn from heart, and organs/tissues of interest were collected, rinsed with PBS, blotted dry, weighed, and counted using an automated gamma counter. The uptake in each organ/tissue was normalized to the injected dose and expressed as the percentage of the injected dose per gram of tissue (% ID/g).
All imaging and biodistribution studies were performed using male NOD.Cg-Rag1tm1Mom II2rgtm1WjI/SzJ (NRG) mice and conducted according to the guidelines established by the Canadian Council on Animal Care and approved by Animal Ethics Committee of the University of British Columbia. For tumor inoculations, mice were anesthetized by inhalation with 2% isoflurane in oxygen and implanted subcutaneously with 5×10^6 PC-3 cells below the left shoulder. Imaging and biodistribution studies were performed only after tumors grew to 5-8 mm in diameter.
For PET/CT imaging studies, ˜5 MBq of the ^68Ga-labeled tracer was injected through the tail vein. Mice were allowed to recover and roam freely in the cages after injecting the tracer. At 45 min post-injection (p.i.), mice were sedated again and positioned on the scanner. First, a 10 min CT scan was conducted for localization and attenuation correction for reconstruction of PET images, before a 10 min PET image was acquired. Heating pads were used during the entire procedure to keep the mice warm. For ex vivo biodistribution studies, mice were injected with ˜3 MBq of the 68Ga-labeled tracer. At 1 h p.i., mice were euthanized, blood was drawn from heart, and organs/tissues of interest were collected, rinsed with PBS, blotted dry, weighed, and counted using an automated gamma counter.
Series [3] can be described thus: In vivo plasma stability, radio-HPLC of plasma at 15 min p.i. To be noted: healthy male NRG mice (n=3), 15 min post-injection. Here is the method:
In vivo plasma stability studies were conducted for ^68Ga-labeled tracers to evaluate metabolic stability at 15 min p.i. Approximately 5.56 to 15.3 MBq of ^68Ga-LW01025, ^68Ga-LW01029, ^68Ga-LW01107, ^68Ga-LW01108, ^68Ga-LW01110, ^68Ga-LW01102, or ^68Ga-LW01142 were injected via tail vein into three male NRG mice, respectively. At 15 min p.i., mice were sedated and euthanized and their blood and urine were collected. The plasma was extracted from whole blood with ACN, vortexed, centrifuged, and the supernatant collected. The plasma and urine were analyzed with radio-HPLC (C18 analytical column; flow rate: 2.0 mL/min). The HPLC condition was same as the HPLC condition for quality control.
The in vivo studies were similarly performed according to the procedure set forth in Example 1. […] The present invention has been described with regard to one or more embodiments.

[4] abbreviates: NRG, PC-3 tumor, Biodistribution PC3 tumor Mean.
The mark [5] stands for this setting: NRG, adrenal, Biodistribution Adrenal Mean.
Setting [6] is: NRG, bone, Biodistribution Bone Mean.
Setting [7] is: NRG, brain, Biodistribution Brain Mean.
Setting [8] is: NRG, fat, Biodistribution Fat Mean.
[9] abbreviates: NRG, heart, Biodistribution Heart Mean.
Where [10] appears, read: NRG, kidneys, Biodistribution Kidneys Mean.
[11] abbreviates: NRG, large intestine, Biodistribution Large Intestine Mean.
Setting [12] is: NRG, liver, Biodistribution Liver Mean.
The mark [13] stands for this setting: NRG, lungs, Biodistribution Lungs Mean.
Where [14] appears, read: NRG, muscle, Biodistribution Muscle Mean.
The mark [15] stands for this setting: NRG, pancreas, Biodistribution Pancreas Mean.
[16] abbreviates: NRG, small intestine, Biodistribution Small Intestine Mean.
[17] abbreviates: NRG, spleen, Biodistribution Spleen Mean.
Where [18] appears, read: NRG, stomach, Biodistribution Stomach Mean.
The mark [19] stands for this setting: NRG, testes, Biodistribution Testes Mean.
[20] abbreviates: NRG, whole blood, Biodistribution Blood Mean.

Peptide text beside a SMILES is read from it.

T1 sequence (P30550 whole entry): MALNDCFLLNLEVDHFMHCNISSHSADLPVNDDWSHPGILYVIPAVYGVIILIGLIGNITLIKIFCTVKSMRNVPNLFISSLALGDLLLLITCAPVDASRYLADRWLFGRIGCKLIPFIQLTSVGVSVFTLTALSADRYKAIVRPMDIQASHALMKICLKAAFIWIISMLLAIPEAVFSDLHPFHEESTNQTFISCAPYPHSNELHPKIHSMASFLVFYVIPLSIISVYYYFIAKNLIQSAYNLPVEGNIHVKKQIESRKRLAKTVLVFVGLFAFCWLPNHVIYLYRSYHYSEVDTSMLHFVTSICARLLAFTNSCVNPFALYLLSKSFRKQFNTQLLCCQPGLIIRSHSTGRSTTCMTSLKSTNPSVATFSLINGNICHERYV

`CC(C)C[C@H](NC(=O)[C@H](Cc1cnc[nH]1)N(C)C(=O)CNC(=O)[C@@H](NC(=O)[C@H](C)NC(=O)[C@H](Cc1c[nH]c2ccccc12)NC(=O)[C@H](CCC(N)=O)NC(=O)[C@H](N)Cc1ccccc1)C(C)C)C(=O)N1CSC[C@H]1C(N)=O` [LW01088, D-Phe-Gln-Trp-Ala-Val-Gly-NMe-His-Leu-Thz-NH2]: in series [1], the Ki is 9 nM.
Same read-out and setting: in the case of `CC(C)C[C@H](NC(=O)[C@H](Cc1cnc[nH]1)NC(=O)CNC(=O)[C@@H](NC(=O)[C@H](C)NC(=O)[C@H](Cc1cn(C)c2ccccc12)NC(=O)[C@H](CCC(N)=O)NC(=O)[C@H](N)Cc1ccccc1)C(C)C)C(=O)N1CSC[C@H]1C(N)=O` [LW01136] it was 35.7 nM.
Same read-out and setting: in the case of `CC(C)C[C@H](NC(=O)[C@H](Cc1c[nH]cn1)NC(=O)CNC(=O)[C@@H](NC(=O)[C@H](C)NC(=O)[C@H](Cc1c[nH]c2ccc(F)cc12)NC(=O)[C@H](CCC(N)=O)NC(=O)[C@H](N)Cc1ccccc1)C(C)C)C(=O)N1CSC[C@H]1C(N)=O` [LW01166] it was 17.9 nM.
The same measure, in the same setting: in the case of `CC(C)C[C@H](NC(=O)[C@H](Cc1c[nH]cn1)NC(=O)CNC(=O)[C@@H](NC(=O)[C@H](C)NC(=O)[C@H](Cc1c[nH]c2cc(F)ccc12)NC(=O)[C@H](CCC(N)=O)NC(=O)[C@H](N)Cc1ccccc1)C(C)C)C(=O)N1CSC[C@H]1C(N)=O` [LW01175] it was 46.9 nM.
As to `CC(C)C[C@H](NC(=O)[C@H](Cc1c[nH]cn1)NC(=O)CNC(=O)[C@@H](NC(=O)[C@H](C)NC(=O)[C@H](Cc1c[nH]c2c(F)cccc12)NC(=O)[C@H](CCC(N)=O)NC(=O)[C@H](N)Cc1ccccc1)C(C)C)C(=O)N1CSC[C@H]1C(N)=O` [LW01177, D-Phe-Gln-7-F-Trp-Ala-Val-Gly-His-Leu-Thz-NH2], the Ki in series [1] was found to be 9.38 nM.
Same read-out and setting: in the case of `CC(C)C[C@H](NC(=O)[C@H](Cc1c[nH]cn1)NC(=O)CNC(=O)[C@@H](NC(=O)[C@H](C)NC(=O)[C@H](Cc1c[nH]c2cccc(F)c12)NC(=O)[C@H](CCC(N)=O)NC(=O)[C@H](N)Cc1ccccc1)C(C)C)C(=O)N1CSC[C@H]1C(N)=O` [LW01180] it was 43.4 nM; in that of `Cc1cccc2[nH]cc(C[C@H](NC(=O)[C@H](CCC(N)=O)NC(=O)[C@H](N)Cc3ccccc3)C(=O)N[C@@H](C)C(=O)N[C@H](C(=O)NCC(=O)N[C@@H](Cc3c[nH]cn3)C(=O)N[C@@H](CC(C)C)C(=O)N3CSC[C@H]3C(N)=O)C(C)C)c12` [LW01183], 25.9 nM.
On the same count and under the same terms, in the case of `Cc1cccc2c(C[C@H](NC(=O)[C@H](CCC(N)=O)NC(=O)[C@H](N)Cc3ccccc3)C(=O)N[C@@H](C)C(=O)N[C@H](C(=O)NCC(=O)N[C@@H](Cc3c[nH]cn3)C(=O)N[C@@H](CC(C)C)C(=O)N3CSC[C@H]3C(N)=O)C(C)C)c[nH]c12` [LW02007] it was 13.5 nM; in that of `Cc1[nH]c2ccccc2c1C[C@H](NC(=O)[C@H](CCC(N)=O)NC(=O)[C@H](N)Cc1ccccc1)C(=O)N[C@@H](C)C(=O)N[C@H](C(=O)NCC(=O)N[C@@H](Cc1c[nH]cn1)C(=O)N[C@@H](CC(C)C)C(=O)N1CSC[C@H]1C(N)=O)C(C)C` [LW02009, D-Phe-Gln-2-Me-Trp-Ala-Val-Gly-His-Leu-Thz-NH2], 11.5 nM; in that of `CC(C)C[C@H](NC(=O)[C@H](Cc1c[nH]cn1)NC(=O)CNC(=O)[C@@H](NC(=O)[C@H](C)NC(=O)[C@H](Cc1c[nH]c2ncccc12)NC(=O)[C@H](CCC(N)=O)NC(=O)[C@H](N)Cc1ccccc1)C(C)C)C(=O)N1CSC[C@H]1C(N)=O` [LW02013], 166 nM.
The same measure, in the same setting: in the case of `CC(C)C[C@H](NC(=O)[C@H](Cc1c[nH]cn1)NC(=O)CNC(=O)[C@@H](NC(=O)[C@H](C)NC(=O)[C@H](Cc1csc2ccccc12)NC(=O)[C@H](CCC(N)=O)NC(=O)[C@H](N)Cc1ccccc1)C(C)C)C(=O)N1CSC[C@H]1C(N)=O` [LW02015] (HELM PEPTIDE1{[dF].Q.[O=C([C@H](Cc1csc2ccccc12)N[*:1])[*:2]].A.V.G.H.L.[O=C([C@@H]1CSCN1[*:1])[*:2]].[am]}$$$$V2.0) it was 53.1 nM.
Regarding `CC(C)C[C@H](NC(=O)[C@H](Cc1c[nH]cn1)NC(=O)CNC(=O)[C@@H](NC(=O)[C@H](C)NC(=O)[C@H](Cc1c[nH]c2ccccc12)NC(=O)[C@H](CCC(N)=O)NC(=O)[C@H](N)Cc1ccccc1)C1CC1)C(=O)N1CSC[C@H]1C(N)=O` [LW02016], the inhibition constant Ki in series [1] was 202 nM.
On to `CC(C)C[C@@H](CN1CSC[C@H]1C(N)=O)NC(=O)[C@H](Cc1c[nH]cn1)NC(=O)CNC(=O)[C@@H](NC(=O)[C@H](C)NC(=O)[C@H](Cc1c[nH]c2ccccc12)NC(=O)[C@H](CCC(N)=O)NC(=O)[C@@H](Cc1ccccc1)NC(=O)CN1CCC(NC(=O)CN2CCN(CC(=O)O)CCN(CC(=O)O)CCN(CC(=O)O)CC2)CC1)C(C)C` [^68Ga-LW01045, metal not drawn], for which the tissue uptake at 1 h in series [2] (setting [4]) came to 10.2 %ID/g; in series [2] (setting [5]), 0.57 %ID/g; in series [2] (setting [6]), 0.19 %ID/g; in series [2] (setting [7]), 0.05 %ID/g; in series [2] (setting [8]), 0.09 %ID/g; in series [2] (setting [9]) it was 0.27 %ID/g. The tissue uptake at 1 h worked out at 2.51 %ID/g in series [2] (setting [10]); 0.37 %ID/g in series [2] (setting [11]); 2.61 %ID/g in series [2] (setting [12]); 0.75 %ID/g in series [2] (setting [13]); 0.15 %ID/g in series [2] (setting [14]); 2.81 %ID/g in series [2] (setting [15]). Moreover, the tissue uptake at 1 h turned out to be 1.04 %ID/g in series [2] (setting [16]); 0.47 %ID/g in series [2] (setting [17]); 0.32 %ID/g in series [2] (setting [18]); 0.19 %ID/g in series [2] (setting [19]); 0.76 %ID/g in series [2] (setting [20]). Moreover, the “remaining intact in plasma” value in series [3] was determined as 83.3±1.45%.
As to `CC(C)C[C@@H](CN1CSC[C@H]1C(N)=O)NC(=O)[C@H](Cc1cnc[nH]1)NC(=O)CN(C)C(=O)[C@@H](NC(=O)[C@H](C)NC(=O)[C@H](Cc1c[nH]c2ccccc12)NC(=O)[C@H](CCC(N)=O)NC(=O)[C@@H](Cc1ccccc1)NC(=O)CN1CCC(NC(=O)CN2CCN(CC(=O)O)CCN(CC(=O)O)CCN(CC(=O)O)CC2)CC1)C(C)C` [^68Ga-LW01090, metal not drawn], the tissue to tissue ratio at 1 h in series [2] (NOD.Cg-Rag1tm1Mom Il2rgtm1Wjl/SzJ (NRG), tumor and kidney, Tumor/kidney Mean) amounted to 4.48; in series [2] (NOD.Cg-Rag1tm1Mom Il2rgtm1Wjl/SzJ (NRG), tumor and pancreas, Tumor/pancreas Mean) it was 7.95; in series [2] (NRG, PC-3 tumor / bone, Tumor/bone Mean) it was 175; in series [2] (NRG, PC-3 tumor / muscle, Tumor/muscle Mean) it was 82.3. The tissue uptake at 1 h amounted to 15.7 %ID/g in series [2] (setting [4]); 0.58 %ID/g in series [2] (setting [5]); 0.1 %ID/g in series [2] (setting [6]); 0.03 %ID/g in series [2] (setting [7]); 0.11 %ID/g in series [2] (setting [8]); 0.24 %ID/g in series [2] (setting [9]). Also, the tissue uptake at 1 h worked out at 3.52 %ID/g in series [2] (setting [10]); 0.41 %ID/g in series [2] (setting [11]); 0.64 %ID/g in series [2] (setting [12]); 0.55 %ID/g in series [2] (setting [13]); 0.2 %ID/g in series [2] (setting [14]); 1.98 %ID/g in series [2] (setting [15]). For the same compound, the tissue uptake at 1 h is 0.66 %ID/g in series [2] (setting [16]); 0.3 %ID/g in series [2] (setting [17]); 0.4 %ID/g in series [2] (setting [18]); 0.23 %ID/g in series [2] (setting [19]); 0.76 %ID/g in series [2] (setting [20]). Besides, the “remaining intact in plasma” value in series [3] stood at 67.1±4.76%.
